According to PMC9452538, “The antimicrobial peptide LI14 combats multidrug-resistant bacterial infections” (Communications Biology, 2022):

How the values were obtained:
MDR E. coli B2 = assay: Checkerboard assay with LI14; format: cell-based, Escherichia coli; conditions: for FIC index: antibiotic in combination with LI14, checkerboard 8 × 8, 18 h, ≤0.5 = synergy; for Potentiation: antibiotic potentiation in the presence of ¼ MIC of LI14; for MICa of antibiotic: in the absence of LI14; for MICb of antibiotic: in the presence of ¼ MIC of LI14
Protocol: (§1) Through checkerboard assay using two-fold serially diluted drugs (8 × 8 matrix), we evaluated the synergistic effects of LI14 with different mechanisms of antibiotics. The absorbance of cultures at 600 nm was determined by a Microplate reader after 18 h of incubation with (1.5 × 10^6 CFUs/mL) bacterial suspension. The FIC index (FICI) was calculated by performing two biological replicates for each combination. The formula is as follows: FIC index = FICIa + FICIb = MICab/MICa + MICba/Mb. An FIC index of ≤0.5 indicates synergy.
(§2) a/bMICs of antibiotics in the absence or presence of ¼ MIC of LI14.
(§3) cDegree of antibiotics potentiation in the presence of ¼ MIC of LI14.
(§4) –, none of potentiation activity.

[1] = tested on: sensitive E. coli ATCC 25922; assay: Checkerboard assay with LI14; format: cell-based, Escherichia coli; conditions: for FIC index: antibiotic in combination with LI14, checkerboard; for MICa of antibiotic: in the absence of LI14
Protocol: as §1, §2, §3, §4

S. aureus ATCC 29213 [2] = assay: Resistance development study, serial passages; format: cell-based, Staphylococcus aureus; conditions: 80 serial passages at sub-inhibitory concentration (0.5-fold MIC)
Protocol: (§5) The ability of LI14 peptide to induce resistance was studied as previously described. Resistance to the therapeutically important drugs rifampicin and ciprofloxacin was measured using S. aureus ATCC 29213 and E. coli ATCC 25922 as test strains. The middle and final MICs were monitored after eighty such serial passages exposed to the tested medicines (0.5-fold MIC), and the fold change in MIC increase was recorded.

E. coli B2 = assay: Neutropenic mouse thigh infection model; format: in vivo, CD-1 mice; conditions: RIF 20 mg/kg i.p., 48 h
Protocol: Female CD-1 mice (n = 6 biologically independent animals per group) were first given cyclophosphamide (two consecutive injections of 150 and 100 mg kg^−1 at 4 and 1 day before infection) to construct neutropenia models. The mice’s right thighs were then injected with 100 μL MRSA T144 or E. coli B2 suspensions (10^5 CFUs per mouse). Post-infection of 1 h, 100 μL LI14 peptide (10 or 20 mg/kg), ampicillin/rifampicin (20 mg/kg) or a combination of LI14 with ampicillin/ rifampicin (10 + 20 mg/kg) were given by intraperitoneal injection. All mice were euthanized 48 h after drug administration, and right thigh muscle tissue was removed aseptically, homogenized, serially diluted, and plated on MHA to qualify bacterial loads after overnight incubation at 37 °C.

MRSA T144 [3] = assay: microbe, parasite or virus in culture; format: cell-based, Staphylococcus aureus; conditions: MRSA T144; MHB, 16-18 h, 37 °C
Protocol: (§6) An antimicrobial activity study was conducted on all peptides against a panel of laboratory bacteria, including ATCC source and clinical isolates with resistance determinants. According to CLSI2021 guidelines, we tested the minimum inhibitory concentrations (MICs) of peptides using standard broth micro-dilutions. Briefly, bacteria grown to exponential phase were diluted in 1:1000 to MHB, subsequently, equivalent amounts of bacterial suspension (1.5 × 10^6 CFUs/mL) were mixed with different concentrations of peptides in a sterilized 96-well microtiter plate (Corning).

S. aureus ATCC 29213 [4] = assay: microbe, parasite or virus in culture; format: cell-based, Staphylococcus aureus; conditions: S. aureus ATCC 29213; MHB, 16-18 h, 37 °C
Protocol: as §6

MRSA 1518 = assay: microbe, parasite or virus in culture; format: cell-based, Staphylococcus aureus; conditions: MRSA 1518; MHB, 16-18 h, 37 °C
Protocol: as §6

MRSA 1530 = assay: microbe, parasite or virus in culture; format: cell-based, Staphylococcus aureus; conditions: MRSA 1530; MHB, 16-18 h, 37 °C
Protocol: as §6

[5] = tested on: S. aureus 215 (cfr + LZD^R); assay: MIC broth microdilution; format: cell-based, Staphylococcus aureus; conditions: S. aureus 215 (cfr + LZD^R); MHB, 16-18 h, 37 °C
Protocol: as §6

S. aureus G16 (RIF^R) = assay: MIC broth microdilution; format: cell-based, Staphylococcus aureus; conditions: S. aureus G16 (RIF^R); MHB, 16-18 h, 37 °C
Protocol: as §6

E. faecalis 1F-1 = assay: microbe, parasite or virus in culture; format: cell-based; conditions: E. faecalis 1F-1; MHB, 16-18 h, 37 °C
Protocol: as §6

[6] = tested on: E. faecalis A4 (VRE, VanA); assay: microbe, parasite or virus in culture; format: cell-based; conditions: E. faecalis A4 (VRE, VanA); MHB, 16-18 h, 37 °C
Protocol: as §6

[7] = tested on: S. enteritidis ATCC 13076; assay: microbe, parasite or virus in culture; format: cell-based; conditions: S. enteritidis ATCC 13076; MHB, 16-18 h, 37 °C
Protocol: as §6

E. faecium 5F-10 = assay: microbe, parasite or virus in culture; format: cell-based, Enterococcus faecium; conditions: E. faecium 5F-10; MHB, 16-18 h, 37 °C
Protocol: as §6

E. coli ATCC 25922 [8] = assay: microbe, parasite or virus in culture; format: cell-based, Escherichia coli; conditions: E. coli ATCC 25922; MHB, 16-18 h, 37 °C
Protocol: as §6

[9] = tested on: E. coli B2 (blaNDM-5 + mcr-1); assay: microbe, parasite or virus in culture; format: cell-based, Escherichia coli; conditions: E. coli B2 (blaNDM-5 + mcr-1); MHB, 16-18 h, 37 °C
Protocol: as §6

E. coli 1F28 (tet(X4)) = assay: microbe, parasite or virus in culture; format: cell-based, Escherichia coli; conditions: E. coli 1F28 (tet(X4)); MHB, 16-18 h, 37 °C
Protocol: as §6

E. coli B3-1 (tet(X4)) = assay: microbe, parasite or virus in culture; format: cell-based, Escherichia coli; conditions: E. coli B3-1 (tet(X4)); MHB, 16-18 h, 37 °C
Protocol: as §6

E. coli C3 (blaNDM-1) = assay: microbe, parasite or virus in culture; format: cell-based, Escherichia coli; conditions: E. coli C3 (blaNDM-1); MHB, 16-18 h, 37 °C
Protocol: as §6

E. coli CP131 (mcr-3) = assay: microbe, parasite or virus in culture; format: cell-based, Escherichia coli; conditions: E. coli CP131 (mcr-3); MHB, 16-18 h, 37 °C
Protocol: as §6

E. coli G6 (blaNDM-5) = assay: microbe, parasite or virus in culture; format: cell-based, Escherichia coli; conditions: E. coli G6 (blaNDM-5); MHB, 16-18 h, 37 °C
Protocol: as §6

E. coli G92 (mcr-1) = assay: microbe, parasite or virus in culture; format: cell-based, Escherichia coli; conditions: E. coli G92 (mcr-1); MHB, 16-18 h, 37 °C
Protocol: as §6

A. baumannii ATCC 19609 = assay: microbe, parasite or virus in culture; format: cell-based, Acinetobacter baumannii; conditions: A. baumannii ATCC 19609; MHB, 16-18 h, 37 °C
Protocol: as §6

[10] = tested on: A. baumannii C222 (tet(X6)); assay: microbe, parasite or virus in culture; format: cell-based, Acinetobacter baumannii; conditions: A. baumannii C222 (tet(X6)); MHB, 16-18 h, 37 °C
Protocol: as §6

P. aeruginosa PA14 = assay: microbe, parasite or virus in culture; format: cell-based, Pseudomonas aeruginosa; conditions: P. aeruginosa PA14; MHB, 16-18 h, 37 °C
Protocol: as §6

[11] = tested on: K. pneumoniae ATCC 700603; assay: microbe, parasite or virus in culture; format: cell-based, Klebsiella pneumoniae; conditions: K. pneumoniae ATCC 700603; MHB, 16-18 h, 37 °C
Protocol: as §6

[12] = tested on: K. pneumoniae D120 (mcr-8); assay: microbe, parasite or virus in culture; format: cell-based, Klebsiella pneumoniae; conditions: K. pneumoniae D120 (mcr-8); MHB, 16-18 h, 37 °C
Protocol: as §6

[13] = tested on: P. cibarius HNCF44W (blaNDM-1 + tet(X6)); assay: organism not typed; format: cell-based; conditions: P. cibarius HNCF44W (blaNDM-1 + tet(X6)); MHB, 16-18 h, 37 °C
Protocol: as §6

E. coli DH5α (PUC19) = assay: MIC broth microdilution; format: cell-based, Escherichia coli; conditions: engineered E. coli DH5α (PUC19); MHB, 16-18 h, 37 °C
Protocol: as §6

[14] = tested on: E. coli DH5α (PUC19-mcr-1); assay: MIC broth microdilution; format: cell-based, Escherichia coli; conditions: engineered E. coli DH5α (PUC19-mcr-1); MHB, 16-18 h, 37 °C
Protocol: as §6

MRSA T144 [15] = assay: Checkerboard assay with LI14; format: cell-based, Staphylococcus aureus
Protocol: as §1, §2, §3, §4

E. coli ATCC 25922 [16] = assay: Resistance development study, serial passages; format: cell-based, Escherichia coli; conditions: 80 serial passages at sub-inhibitory concentration (0.5-fold MIC)
Protocol: as §5

[17] = in the presence of ¼ MIC of LI14

CO[C@H]1/C=C/O[C@@]2(C)Oc3c(C)c(O)c4c(O)c(c(/C=N/N5CCN(C)CC5)c(O)c4c3C2=O)NC(=O)/C(C)=C\C=C\[C@H](C)[C@H](O)[C@@H](C)[C@@H](O)[C@@H](C)[C@H](OC(C)=O)[C@@H]1C [Rifampicin]
FIC index (MDR E. coli B2): < 0.078 | Potentiation (MDR E. coli B2): > 64 fold | MICa of antibiotic (MDR E. coli B2): > 128 µg/mL | MICb of antibiotic (MDR E. coli B2): 2 µg/mL | FIC index [1]: < 0.078 | MICa of antibiotic [1]: > 128 µg/mL | MICb of antibiotic [1, 17]: 2 µg/mL | Potentiation [1, 17]: > 64 fold | Increase in MIC after serial passages (S. aureus ATCC 29213 [2]): 1024 fold | Bacterial load in thigh (E. coli B2; animal 1): 6.89 Log10CFUs/thigh | Bacterial load in thigh (E. coli B2; animal 2): 6.97 Log10CFUs/thigh | Bacterial load in thigh (E. coli B2; animal 3): 7.76 Log10CFUs/thigh | Bacterial load in thigh (E. coli B2; animal 4): 7.96 Log10CFUs/thigh | Bacterial load in thigh (E. coli B2; animal 5): 6.83 Log10CFUs/thigh | Bacterial load in thigh (E. coli B2; animal 6): 6.97 Log10CFUs/thigh

Colistin
MIC (MRSA T144 [3]): 16 µg/mL | MIC (S. aureus ATCC 29213 [4]): 16 µg/mL | MIC (MRSA 1518): 16 µg/mL | MIC (MRSA 1530): 16 µg/mL | MIC [5]: 16 µg/mL | MIC (S. aureus G16 (RIF^R)): 1 µg/mL | MIC (E. faecalis 1F-1): >64 µg/mL | MIC [6]: 64 µg/mL | MIC [7]: 0.25 µg/mL | MIC (E. faecium 5F-10): >64 µg/mL | MIC (E. coli ATCC 25922 [8]): 0.5 µg/mL | MIC [9]: 8 µg/mL | MIC (E. coli 1F28 (tet(X4))): 0.125 µg/mL | MIC (E. coli B3-1 (tet(X4))): 0.0625 µg/mL | MIC (E. coli C3 (blaNDM-1)): <0.125 µg/mL | MIC (E. coli CP131 (mcr-3)): 2 µg/mL | MIC (E. coli G6 (blaNDM-5)): 0.5 µg/mL | MIC (E. coli G92 (mcr-1)): 4 µg/mL | MIC (A. baumannii ATCC 19609): 0.125 µg/mL | MIC [10]: <0.125 µg/mL | MIC (P. aeruginosa PA14): 1 µg/mL | MIC [11]: 1 µg/mL | MIC [12]: 4 µg/mL | MIC [13]: >256 µg/mL | MIC (E. coli DH5α (PUC19)): <0.125 µg/mL | MIC [14]: 2 µg/mL | FIC index (MDR E. coli B2): 2 | MICa of antibiotic (MDR E. coli B2): 8 µg/mL | MICb of antibiotic (MDR E. coli B2): 8 µg/mL

O=C(O)c1cn(C2CC2)c2cc(N3CCNCC3)c(F)cc2c1=O [Ciprofloxacin]
FIC index (MDR E. coli B2): 0.188 | Potentiation (MDR E. coli B2): 8 fold | MICa of antibiotic (MDR E. coli B2): 32 µg/mL | MICb of antibiotic (MDR E. coli B2): 4 µg/mL | FIC index [1]: 1.5 | MICa of antibiotic [1]: 0.008 µg/mL | MICb of antibiotic [1, 17]: 0.008 µg/mL | FIC index (MRSA T144 [15]; antibiotic in combination with LI14, checkerboard): 2.0 | MICa of antibiotic (MRSA T144 [15]; in the absence of LI14): 2 µg/mL | MICb of antibiotic (MRSA T144 [15]; [17]): 2 µg/mL | Increase in MIC after serial passages (E. coli ATCC 25922 [16]): 256 fold
